This is an account of results in patent US20260365696A1, “INHIBITORS OF PTP1B / NCK1 INTERACTION AND METHODS OF MAKING AND USING SAME” (Radella Pharmaceuticals LLC, priority 2023, published 2026).

For one series, the system named is LDLR−/− mice. The series can be described thus: LDLR−/− mouse model of atherosclerosis. The conditions noted are these: 30 mg/kg IP daily. The format is in vivo. The text has this: Animals: All animals were housed and tested following European (Directive on the Protection of Animals used for Scientific Purposes, 2010/63/EU) and UK Home Office regulations. Experiments were approved by the University Ethics Board and carried out in accordance with the Animal (Scientific Procedures) Act 1986 and following ARRIVE guidelines. LDLR−/− male mice (~6-7 weeks old) were purchased from Jackson, US. All mice received a high fat/high cholesterol diet (42% fat plus 0.2% cholesterol, #TD.88137, Envigo, US), to induce atherosclerosis phenotype associated with obesity and type 2 diabetes. All mice had ad libitum access to food and water and were kept in a 12 h light/dark cycle.
Treatments: After 8 weeks of high fat/high cholesterol diet feeding, mice were randomized in to control (n=10) or MD20 30 mg/kg (n=9) groups. MD20 compound (30 mg/kg) was administered once daily via intraperitoneal (IP) injection for 7 weeks, whereas control mice received a daily IP injection of vehicle (PBS). MD20 was kept at −20 °C and dissolved in sterile phosphate buffered saline (PBS) freshly every day before the injection. Two mice died during the study and final numbers per group were: control (n=8) and MD20 30 mg/kg (n=9).
Bodyweights and body mass composition: Body weights were recorded during the study, and fat and lean mass composition was analyzed using an EchoMRI scanner (EchoMedical Systems, Houston, TX, U.S.A.).
Metabolic measurements: All animals were 5 h-fasted before metabolic tests. Tail blood glucose was measured using AlphaTRAK 2 glucose strips and glucometer (Abbot, UK).
Glucose and insulin tolerance tests (GTT, ITT) were performed by IP injection of 2 mg/g of glucose (GTT) or 0.6 mU/g insulin (ITT), and glucose levels were measured at 15, 30, 60 and 90 min post-injection.
Serum and liver assays: Trunk-derived blood was collected from 5 h-fasted mice into serum separator microtubes and kept at −80 °C. Serum was used for insulin (#EZRMI-13K, Merck), leptin (#90030, Crystal Chem), free fatty acids (FFA; #mak044, Sigma-Aldrich), cholesterol (#MAK043, Sigma Aldrich), and alanine and aspartate aminotransferase (ALT and AST; ab105134 and ab105135, Abcam) analyses. Serum and liver triglycerides were determined using triglyceride reagents (#T2449, #F6428, #G7793, Sigma Aldrich).
Aortic plaques analyses: Hearts with aortas attached were immersed in formalin and stored at 4 °C for 24 h following dissection, and transferred in to PBS thereafter. Aortas were sub-dissected under microscope and prepared for staining with Oil Red O. Images were captured using a light microscope. Plaque formation was quantified using ImageJ software, and results were expressed as % plaque area.
Statistical analyses: Data were reported as means±SEM and analyzed using one- or two-way ANOVA with Bonferroni post hoc tests, as appropriate. GraphPad Prism (V8, GraphPad Software, Inc., San Diego, California, USA) was used for statistical analyses. P-values <0.05 were considered significant.

The subject of the next series is G6Pase. The series can be described thus: G6Pase gene expression in liver of LDLR−/− mice (qPCR). The format is in vivo, mouse. The conditions noted are these: 30 mg/kg IP daily, vs control. Here is the method: (§1) FIGS. 30A-30E are graphs showing expression of various genes in tissues of HFD-fed LDLR−/− mice following 6 weeks of daily IP administration of MD20 (30 mg/kg) or a vehicle control. Mice were fasted for 5 hours at the conclusion of the experiment, liver and white adipose tissue (“WAT”) samples were collected, and gene expression was measured by qRT-PCR. Expression of glucose transporter 4 (GLUT4; FIG. 30A) and stearoyl-CoA-desaturase 1 (SCD1; FIG. 30B) was measured in adipose tissue, and expression of Glucose-6-phosphatase (G6P; FIG. 30C), Activating Transcription Factor 4 (ATF4; FIG. 30D), and 3-hydroxy-3-methylglutaryl (HMGCS; FIG. 30E) was measured in liver tissue. Data represent mean±SEM; statistical differences were determined using two tailed student's t-test.
(§2) Gene expression analyses: Livers and adipose tissue were collected from 5 h-fasted animals and snap-frozen in liquid nitrogen. RNA was isolated from frozen liver tissue using TRIzole (Sigma, UK) and cDNA was synthesized from 1 μg RNA using bioscript cDNA synthesis kit (Bioline, UK), oligo (dT) 18 (SEQ ID NO: 170), and random hexamer primers.
(§3) Genes of interest were amplified by quantitative PCR (qPCR) using gene-specific primers and GoTaq qPCR master mix (Promega, Madison, WI, USA).

Another series relates to ATF4. The series can be described thus: ATF4 gene expression in liver of LDLR−/− mice (qPCR). The format is in vivo, mouse. The following applies: 30 mg/kg IP daily, vs control. On the procedure: as §1, §2, §3
A further series has as its system SCD1. The series can be described thus: SCD1 gene expression in adipose tissue of LDLR−/− mice (qPCR). In kind it is in vivo, mouse. The following applies: 30 mg/kg IP daily, vs control. Here is the method: as §1, §2, §3

Consider Ac-PRPPKR-NH2 [MD20, Ac-PRPPKR-NH2], for which, in the series on LDLR−/− mice (vs control), the “% change in fat mass” value is reported as “a trend to ward a decreased % change in fat mass” and the aortic plaque area result is “No statistically significant differences”. In addition, in the series on LDLR−/− mice (vs vehicle), the “% change in body weights” value is “significant interaction”, the “body weights during the weeks of treatment” value is on record as “significant interaction”, the fat mass content result is “No statistically significant differences” and the lean mass result is “No significant changes in lean mass”. Moreover, the raw body weights result in the series with LDLR−/− mice (vs vehicle) is recorded as “No statistically significant differences”. Moreover, the “glucose tolerance test (GTT)” value in the series on LDLR−/− mice (2 mg/g glucose) is “No statistically significant differences”. The “insulin tolerance test (ITT)” value in the series with LDLR−/− mice (0.6 mU/g insulin) is on record as “not statistically significant, slight improvements could be seen”. In the series with LDLR−/− mice (5 h-fasted), the hepatic triglycerides result is recorded as “No statistically significant differences”, the “serum ALT” value is given as “No statistically significant differences”, the “serum AST” value is recorded as “No statistically significant differences” and the serum cholesterol result is “No statistically significant differences”. In addition, in the series with LDLR−/− mice (5 h-fasted), the “serum free fatty acids” value is “No statistically significant differences”, the serum insulin entry is recorded as “No statistically significant differences”, the serum leptin result is “No statistically significant differences” and the serum triglycerides entry is recorded as “No statistically significant differences”. Also, the “G6Pase gene expression in liver” value in the series on G6Pase is on record as “decreased”. In addition, in the series with ATF4, the “ATF4 expression in liver” value is reported as “decreased”. In addition, the “SCD1 expression in adipose tissue” value in the series on SCD1 was “increased”.
